Test systems include Streptococcus agalactiae; Vibrio alginolyticus; Vibrio vulnificus 204; Staphylococcus aureus; Pseudomonas aeruginosa; Escherichia coli DL7; Bacillus subtilis PS832; Vibrio cholerae non-O139; Vibrio cholerae non-O1.
What all share (assay): ≥ marks a high value that may be exact or a test limit, other limits are often not marked, values filed in µg/mL are converted to µM
The test system of test [1] is Streptococcus pneumoniae BCRC 10794.
Test [2] concerns Vibrio harveyi BCRC 13812.
The subject of test [3] is Micrococcus luteus BCRC 11034.
Test [4] concerns Staphylococcus aureus BCRC 10780.
The subject of test [5] is Staphylococcus sp. BCRC 10451.
The subject of test [6] is Klebsiella aerogenes ATCC 13048.
Test [7] relates to Staphylococcus epidermidis ATCC 12228.
Test [8] relates to Pseudomonas aeruginosa ATCC 27853.
The subject of test [9] is Candida albicans ATCC 200955.
Test [10] relates to Enterococcus faecium ATCC 700221.
Test [11] relates to Escherichia coli ATCC 25922.
In test [12] the test system is Staphylococcus aureus ATCC 33591.
Test [13] has as its system Escherichia coli ATCC 35218.
The test system of test [14] is Staphylococcus aureus ATCC 25325.
Test [15] concerns Staphylococcus aureus ATCC 25023.
The test system of test [16] is Neisseria gonorrhoeae FA19.
In test [17] the test system is Neisseria gonorrhoeae F62.
In test [18] the test system is Staphylococcus aureus ATCC 25923.
Test [19] concerns Salmonella enterica subsp. enterica serovar Typhi DMST 22842.
Test [20] relates to Bacillus cereus PTCC 1247.
Test [21] has as its system Escherichia coli HP101BA 7601c.
Test [22] deals with Klebsiella pneumoniae PTCC 1388.
The subject of test [23] is Staphylococcus aureus PTCC 1431.
Test [24] has as its system Cronobacter sakazakii DPC 6440.
Test [25] deals with Listeria monocytogenes LO28.

Values after ≈ are worked out from the molar mass of the structure shown.

Turning to `CC[C@H](C)[C@H](NC(=O)[C@H](CCCCN)NC(=O)[C@@H]1CCCN1C(=O)[C@@H](NC(=O)[C@H](CC(C)C)NC(=O)[C@H](C)NC(=O)[C@H](Cc1ccccc1)NC(=O)[C@H](Cc1ccccc1)NC(=O)CNC(C)=O)[C@@H](C)CC)C(=O)N[C@H](C(=O)N[C@@H](CO)C(=O)N[C@@H](CO)C(=O)N1CCC[C@H]1C(=O)N[C@@H](CC(C)C)C(=O)N[C@@H](Cc1ccccc1)C(=O)N[C@@H](CCCCN)C(=O)N[C@H](C(=O)N[C@@H](CC(C)C)C(=O)N[C@@H](CC(C)C)C(=O)N[C@@H](CO)C(=O)N[C@@H](C)C(=O)N[C@H](C(=O)NCC(=O)N[C@@H](CO)C(=O)N[C@@H](C)C(=O)N[C@@H](CC(C)C)C(=O)N[C@@H](CO)C(N)=O)C(C)C)[C@@H](C)O)[C@@H](C)CC` [GFFALIPKIISSPLFKTLLSAVGSALS], the minimum inhibitory concentration (MIC) amounted to 18 µM (≈ 50.7 µg/mL) with Streptococcus agalactiae; 4.5 µM (≈ 12.7 µg/mL) in the test with Vibrio alginolyticus; 18 µM (≈ 50.7 µg/mL) in [1]; 18 µM (≈ 50.7 µg/mL) in the test with Vibrio vulnificus 204; 4.5 µM (≈ 12.7 µg/mL) in test [2]; 9 µM (≈ 25.4 µg/mL) in test [3]. In addition, the MIC worked out at 4.5 µM (≈ 12.7 µg/mL) in the test with Staphylococcus aureus, 18 µM (≈ 50.7 µg/mL) in [4], 4.5 µM (≈ 12.7 µg/mL) with Pseudomonas aeruginosa and 2.25 µM (≈ 6.34 µg/mL) in [5].
Regarding `CC[C@H](C)[C@H](NC(=O)[C@H](CCCN=C(N)N)NC(=O)[C@H](CCCCN)NC(=O)[C@H](CC(C)C)NC(=O)[C@H](CC(C)C)NC(=O)CNC(=O)[C@H](Cc1cnc[nH]1)NC(=O)CNC(=O)CN)C(=O)N[C@@H](CCCCN)C(=O)N[C@H](C(=O)N[C@@H](CC(C)C)C(=O)N[C@@H](CC(C)C)C(N)=O)[C@@H](C)O` [GGHGLLKRIKTLL], the MIC was at least 32 µM in test [6], 4 µM (≈ 5.62 µg/mL) against Escherichia coli DL7, 8 µM (≈ 11.2 µg/mL) in [7] and 2 µM (≈ 2.81 µg/mL) in the test on Bacillus subtilis PS832.
Take `CC[C@H](C)[C@H](NC(=O)[C@H](CCCCN)NC(=O)[C@H](CCCCN)NC(=O)[C@H](CC(C)C)NC(=O)[C@H](CC(C)C)NC(=O)CN)C(=O)N[C@@H](CCCCN)C(=O)N[C@@H](CCCCN)C(=O)N[C@@H](CC(C)C)C(=O)N[C@@H](CC(C)C)C(N)=O` [GLLKKIKKLL]: the MIC was 28.4 µM (≈ 32.7 µg/mL) in test [8]; 28.4 µM (≈ 32.7 µg/mL) in test [9]; at least 56.9 µM in test [10]; 25 µM (≈ 28.8 µg/mL) in [11]; at least 256 µM in test [12].
Consider `CC(C)C[C@H](NC(=O)[C@H](C)NC(=O)[C@H](C)NC(=O)[C@H](CCCCN)NC(=O)CNC(=O)[C@@H](NC(=O)[C@H](Cc1cnc[nH]1)NC(=O)[C@H](CCCCN)NC(=O)CNC(=O)[C@@H](NC(=O)[C@H](Cc1cnc[nH]1)NC(=O)[C@H](C)NC(=O)[C@H](C)NC(=O)[C@H](CCCCN)NC(=O)[C@@H](N)CCCCN)C(C)C)C(C)C)C(=O)O` [KKAAHVGKHVGKAAL], for which the minimum inhibitory concentration (MIC) in test [8] amounted to 29.5 µM (≈ 44.7 µg/mL); in test [13] it was 16.1 µM (≈ 24.4 µg/mL); in test [14], 20.2 µM (≈ 30.6 µg/mL).
On to `CC(C)C[C@H](NC(=O)[C@H](CCCN=C(N)N)NC(=O)[C@H](CC(C)C)NC(=O)[C@H](CC(C)C)NC(=O)[C@H](CC(C)C)NC(=O)[C@H](CC(C)C)NC(=O)[C@H](CC(C)C)NC(=O)[C@H](CCCCN)NC(=O)[C@H](CCCN=C(N)N)NC(=O)[C@@H](N)CC(C)C)C(N)=O` [LRKLLLLLRL], for which the MIC in test [15] was determined as 25.6 µM (≈ 32 µg/mL).
`CC(C)C[C@H](NC(=O)[C@H](CCCNC(=N)N)NC(=O)CNC(=O)CNC(=O)[C@@H](N)CCCNC(=N)N)C(=O)N[C@H]1CSSC[C@@H](C(N)=O)NC(=O)[C@H](C(C)C)NC(=O)[C@@H]2CSSC[C@H](NC(=O)[C@H](Cc3ccc(O)cc3)NC1=O)C(=O)N[C@@H](CCCNC(=N)N)C(=O)N[C@@H](CCCNC(=N)N)C(=O)N[C@@H](CCCNC(=N)N)C(=O)N[C@@H](Cc1ccccc1)C(=O)N2` [RGGRLCYCRRRFCVC]: the minimal inhibitory concentration (MIC) turned out to be 4.11 µM (≈ 7.58 µg/mL) in test [16] and 0.58 µM (≈ 1.07 µg/mL) in [17].
Take `NC(=O)[C@H](Cc1c[nH]c2ccccc12)NC(=O)[C@H](Cc1c[nH]c2ccccc12)NC(=O)[C@H](Cc1c[nH]c2ccccc12)NC(=O)[C@H](CCCN=C(N)N)NC(=O)[C@H](CCCN=C(N)N)NC(=O)[C@H](Cc1c[nH]c2ccccc12)NC(=O)[C@H](Cc1c[nH]c2ccccc12)NC(=O)[C@H](CCCN=C(N)N)NC(=O)[C@H](Cc1c[nH]c2ccccc12)NC(=O)[C@H](Cc1c[nH]c2ccccc12)NC(=O)[C@@H](N)CCCN=C(N)N` [RWWRWWRRWWW]: the MIC in the test on Vibrio cholerae non-O139 is at least 46.8 µM; in test [7], above 46.8 µM; in test [18], above 46.8 µM; in test [19] it was at least 46.8 µM; in the test with Vibrio cholerae non-O1, at least 46.8 µM.
With `CC[C@H](C)[C@H](NC(=O)[C@H](Cc1cnc[nH]1)NC(=O)[C@H](CCC(N)=O)NC(=O)[C@H](CCSC)NC(=O)[C@H](CCSC)NC(=O)[C@H](CCC(=O)O)NC(=O)[C@H](C)NC(=O)[C@H](C)NC(=O)[C@@H](NC(=O)[C@H](CO)NC(=O)[C@H](C)NC(=O)[C@@H](NC(=O)[C@H](Cc1ccccc1)NC(=O)[C@@H]1CCCN1C(=O)[C@@H](NC(=O)[C@@H](N)C(C)C)[C@@H](C)CC)C(C)C)C(C)C)C(=O)N[C@@H](Cc1ccccc1)C(=O)N[C@H]1CSSC[C@@H](C(=O)O)NC(=O)[C@H](CCCCN)NC(=O)[C@H](CCCN=C(N)N)NC(=O)[C@H](CO)NC(=O)[C@H](C)NC(=O)[C@H](C)NC1=O` [VIPFVASVAAEMMQHIFCAASRKC], the minimum inhibitory concentration (MIC) in test [20] worked out at 4.6 µM (≈ 12 µg/mL); in test [21], 3.06 µM (≈ 7.99 µg/mL); in test [22], 5.36 µM (≈ 14 µg/mL); in test [23] it was 6.51 µM (≈ 17 µg/mL).
Consider `CC[C@H](C)[C@H](NC(=O)[C@@H](N)Cc1c[nH]c2ccccc12)C(=O)N[C@@H](CCC(N)=O)C(=O)N1CCC[C@H]1C(=O)N[C@@H](CCCCN)C(=O)N[C@H](C(=O)N[C@@H](CCCCN)C(=O)N[C@H](C(=O)N[C@H](C(=O)N1CCC[C@H]1C(=O)N[C@@H](Cc1ccc(O)cc1)C(=O)N[C@@H](C)C(=O)N[C@@H](CCCN=C(N)N)C(=O)N[C@@H](Cc1ccc(O)cc1)C(=O)N[C@@H](CC(C)C)C(=O)O)[C@@H](C)CC)C(C)C)[C@@H](C)O` [WIQPKTKVIPYARYL], for which the MIC in test [24] was at least 39.1 µM; in test [25], 19.5 µM (≈ 36.6 µg/mL).

Usually MIC stands for the lowest concentration that inhibits growth of the organism.

These data come from DBAASP.
